≈ marks a conversion by molar mass, not a printed value. Where “and” joins values, the source holds several entries; their conditions need not be identical. Equal entries are not always repeated.
Legend:
[1] = system: Mycobacterium smegmatis (ATCC 7000084); assay: Serial dilution assay (MIC), M. smegmatis; type: cell-based; settings: Mycolicibacterium smegmatis, ATCC7000084; growth inhibition at 24 h; read-out: minimum inhibitory concentration (MIC) against M. smegmatis
Procedure: Serial dilutions of compounds were prepared as triplicates in sterile U-bottom-shaped 96-well plates (Corning, USA). Mueller-Hinton broth (MHB) medium was used for bacteria, and YMG medium was used for filamentous fungi and yeasts. The selected organisms represent a broad spectrum of pathogens of clinical interest, as well as sensitive indicator strains (Gram-positive bacteria: Bacillus subtilis (DSM 10), Staphylococcus aureus (DSM 346), Mycobacterium smegmatis (ATCC 7000084); Gram-negative bacteria: Acinetobacter baumannii (DSM 30008), Chromobacterium violaceum (DSM 30191), Escherichia coli (DSM 1116), Pseudomonas aeruginosa (PA 14); fungi and yeast: Schizosaccharomyces pombe (DSM 70572), Pichia anomala (DSM 6766), Mucor hiemalis (DSM 2656), Candida albicans (DSM 1665), Rhodotorula glutinis (DSM 10134)).
The compounds were dissolved in MeOH (1 mg/mL), added to the bacterial suspension, and diluted to the final concentrations. The plate was incubated at 37 °C under static conditions. Growth inhibition was assessed at 24 h. MeOH was used as negative control. […]

[2] = biological target: T1, actin (G-actin purified from rabbit skeletal muscle) (Oryctolagus cuniculus, UniProt P68135); assay: Pyrene actin polymerization assay; type: biochemical; settings: 2 μM compound, 2 μM actin (5% pyrene-actin), 550 nM actin seeds, after 30 min; control = 100%
T1 construct: 1.5 kg of fresh rabbit skeletal muscle was minced with a meat grinder; from tissue; host or cells: rabbit skeletal muscle (acetone powder)
Excerpt: To rule out that the reduced in cellulo efficacies of 3–5 could instead be explained by an altered membrane permeability of modified compounds or their differential effects on other intracellular factors, pyrene actin polymerization assays[23] were used to analyze potential effects on actin assembly in vitro under defined conditions. Globular actin (G-actin) was purified from rabbit skeletal muscle[24] and fluorescently labeled with pyrene (see description in the Supporting Information). G-actin (2 μM) supplemented with 5% pyrene-labeled actin was added to actin seeds and the respective compound (2 μM) in polymerization buffer to initiate the reaction. Actin polymerization was then assessed by reading out the increasing pyrene fluorescence signal over time (Figure 3).
Acetone powder and G-actin were prepared as described previously.[24] Briefly, 1.5 kg of fresh rabbit skeletal muscle was minced with a meat grinder. Subsequently, the meat was stirred for 15 min in 2.5 L of high-salt buffer (0.5 M KCl, 0.1 M K2HPO4, 2 mM benzamidine, pH 6.4) and then pelleted at 4000g for 10 min. The supernatant was discarded, and the pellet was extracted once more with high-salt buffer and then washed twice with ice-cold ddH2O adjusting the slurry with 1 M Na2CO3 to pH 8.3 until a slight swelling of the pellet became visible. The pellet was then resuspended in ice-cold acetone, stirred for 15 min, and then centrifuged for 10 min at 4000g. The supernatant was discarded, and the pellet was washed once more with acetone before the pellet was broken up and dried in small pieces on aluminum foil under a fume hood overnight. The dried acetone powder was stored at −80 °C for further use.
For purification of G-actin, 5 g of the acetone powder was extracted five times with 50 mL of G-buffer containing 2 mM Tris-HCl, pH 8.0, 0.2 mM CaCl2, 0.5 mM DTT, 0.2 mM Na2ATP, and 0.1 mg/mL NaN3. After each step, the solution was filtered through a fine gauze, yielding a total volume of 250 mL. Subsequently, the solution was centrifuged for 30 min at 20,000g at 4 °C. Actin in the supernatant was then polymerized by addition of 25 × polymerization buffer (250 mM Tris-HCl pH 8.0, 1250 mM KCl, 25 mM Na2ATP, 50 mM MgCl2 × 6 H2O) overnight. Subsequently, KCl was added to a final concentration of 750 mM, followed by centrifugation of the solution at 150,000g at 4 °C for 3 h. The F-actin pellet was then homogenized with 25 mL of G-actin buffer using a potter and then dialyzed against G-buffer. After a final centrifugation step at 150,000g at 4 °C for 3 h, G-actin was purified by size exclusion chromatography using a HiLoad 26/75 Superdex 200 column. Actin concentrations were determined by measuring the absorbance at 290 nm and using an extinction coefficient of 26,600 M^–1 cm^–1.
For pyrene labeling, 10–20 mL of G-actin solution were dialyzed against labeling buffer following the procedure described by Doolittle et al.[38] […]
Pyrene assays were conducted to assess the inhibitory properties of cytochalasins on actin polymerization under defined conditions in vitro using G-actin and actin seeds. The degree of labeling was determined; EC290 nm actin: 26600 1/M × cm; EC342 nm pyrene: 31091 1/M × cm. […]

[3] = Microextraction of compounds from medium after cell exposure (conversion to 2); type: in vitro ADME, human; settings: for conversion to 2 after 1 h: 1 h cell exposure (data not shown)
Procedure: […] Therefore, cells were seeded and treated with 5 × IC50 concentrations, as already described. […] After evaporation of EtOAc, the dried extracts were diluted in methanol (50 μL) and measured with a high-pressure liquid chromatography system coupled to a diode-array UV/vis detector conjugated with an electrospray ionization mass spectrometer, using an UltiMate 3000 Series uHPLC (Thermo Fisher Scientific) utilizing a C18 Acquity UPLC BEH column (2.1 × 50 mm, 1.7 μm; Waters, Milford, USA) connected to an amaZon speed ESI-Iontrap-MS (Bruker, Billerica, MA, USA). Spectra were analyzed using Bruker Compass DataAnalysis 4.4 SR1.

Row | SMILES | MIC [1] | relative actin polymerization rate [2] | conversion to 2 / decomposition after 24 h cell exposure ([3]; medium re-extracted after 24 h, 5 x IC50, HPLC-UV-MS) | conversion to 2 after 1 h [3]
1 | C=C1[C@@H](C)[C@H]2[C@H](Cc3ccccc3)NC(=O)[C@]23OC(=O)/C=C/[C@H](O)CCC[C@@H](C)C/C=C/[C@H]3[C@@H]1OC(C)=O [Compound 3, 7-O-acetyl cytochalasin B] | 66.6 µg/mL (≈ 128 µM) | 107% | no decomposition | 
2 | C=C1[C@@H](C)[C@H]2[C@H](Cc3ccccc3)NC(=O)[C@]23OC(=O)/C=C/[C@H](OC(C)=O)CCC[C@@H](C)C/C=C/[C@H]3[C@@H]1O [Compound 6, 20-O-acetyl cytochalasin B] |  | 58% |  | not detected
3 | C=C1[C@@H](C)[C@H]2[C@H](Cc3ccccc3)N(C(C)=O)C(=O)[C@]23OC(=O)/C=C/[C@H](O)CCC[C@@H](C)C/C=C/[C@H]3[C@@H]1O [Compound 5, N-acetyl cytochalasin B] |  | 86% and 84–86% |  | little conversion

Source: PMC11519904, “Comprehensive Cell Biological Investigation of Cytochalasin B Derivatives with Distinct Activities on the Actin Network” (Journal of Natural Products, 2024)
